Assay results as given in patent US20260109707A1, “HETEROBIFUNCTIONAL COMPOUNDS AND METHODS OF TREATING DISEASE” (Halda Therapeutics OpCo. Inc., priority 2022, published 2026).

How the values were obtained:
BRD4-BD1 = molecular target: T1, BRD4-BD1 (Homo sapiens, UniProt O60885); experiment: bromoKdELECT assay for binding affinity to BRD4-BD1; details: binding to BRD4-BD1, Table 4
T1 construct: made in house; host or cells: T7 phage grown in an E. coli host derived from the BL21 strain
Method: (§1) Compounds were tested using a bromoKdELECT assay. T7 phage strains displaying bromodomains were grown in parallel in 24-well blocks in an E. coli host derived from the BL21 strain. E. coli were grown to log-phase and infected with T7 phage from a frozen stock (multiplicity of infection=0.4) and incubated with shaking at 32° C. until lysis (90-150 minutes). The lysates were centrifuged (5,000×g) and filtered (0.2 μm) to remove cell debris. Streptavidin-coated magnetic beads were treated with biotinylated small molecule or acetylated peptide ligands for 30 minutes at room temperature to generate affinity resins for bromodomain assays. The liganded beads were blocked with excess biotin and washed with blocking buffer (SeaBlock (Pierce), 1% BSA, 0.05% Tween 20, 1 mM DTT) to remove unbound ligand and to reduce nonspecific phage binding. Binding reactions were assembled by combining bromodomains, liganded affinity beads, and test compounds in 1× binding buffer (17% SeaBlock, 0.33×PBS, 0.04% Tween 20, 0.02% BSA, 0.004% Sodium azide, 7.4 mM DTT). Test compounds were prepared as 1000× stocks in 100% DMSO. Kds were determined using an 11-point 3-fold compound dilution series with one DMSO control point. All compounds for Kd measurements are distributed by acoustic transfer (non-contact dispensing) in 100% DMSO. The compounds were then diluted directly into the assays such that the final concentration of DMSO was 0.09%. All reactions performed in polypropylene 384-well plates. Each was a final volume of 0.02 ml. The assay plates were incubated at room temperature with shaking for 1 hour and the affinity beads were washed with wash buffer (1×PBS, 0.05% Tween 20). The beads were then resuspended in elution buffer (1×PBS, 0.05% Tween […] non-biotinylated affinity ligand) and incubated at room temperature with shaking for 30 minutes. The bromodomain concentration in the eluates was measured by qPCR.

BRD4-BD2 = molecular target: T2, BRD4-BD2 (Homo sapiens, UniProt O60885); experiment: bromoKdELECT assay for binding affinity to BRD4-BD2; details: binding to BRD4-BD2, Table 5
T2 construct: made in house; host or cells: T7 phage grown in an E. coli host derived from the BL21 strain
Method: as §1, with “[…])” for “μm)”

progesterone receptor = molecular target: T3, progesterone receptor (Homo sapiens, UniProt P06401); experiment: PR Human Progesterone NHR Binding (Agonist Radioligand) Assay; details: binding to the progesterone receptor, cytosolic fractions of T47D cells, Table 12
T3 sequence (P06401 679-933 limits assumed): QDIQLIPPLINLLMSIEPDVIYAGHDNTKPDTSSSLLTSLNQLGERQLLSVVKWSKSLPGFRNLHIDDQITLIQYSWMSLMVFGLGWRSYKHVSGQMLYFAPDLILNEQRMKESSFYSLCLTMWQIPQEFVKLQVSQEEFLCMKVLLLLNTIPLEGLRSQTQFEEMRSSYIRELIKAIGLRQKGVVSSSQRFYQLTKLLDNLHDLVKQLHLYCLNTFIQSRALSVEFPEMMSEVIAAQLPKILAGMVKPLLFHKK
Method: Compounds were tested using the PR Human Progesterone NHR Binding (Agonist Radioligand) Assay, Cerep at Eurofins Discovery using a modified version of the protocol from Sarup et al. (Cancer Res 1988; 48:5071-5078). Briefly, cytosolic fractions of T47D cells were incubated with 0.5 nM [^3H]progesterone for 1 hour at 4° C. in the absence or presence of the test compound. Nonspecific binding was determined in the presence of 1 μM promegestone. Reactions were subjected to scintillation counting. Results are expressed as a percent inhibition of the control radioligand specific binding.

[1] = molecular target: T4, progesterone receptor ligand binding domain (LBD) (Homo sapiens, UniProt P06401); experiment: FP assay for binding affinity to progesterone receptor (PolarScreen Progesterone Receptor Competitor Assay Kit); details: fluorescence polarization, GST-tagged PR LBD, Table 13
T4 construct: GST-tagged PR LBD, Fluormone tracer, and compound were mixed and incubated for 2 hours; purchased Life Technologies A15905 or a15906
T4 sequence (P06401 679-913 limits assumed): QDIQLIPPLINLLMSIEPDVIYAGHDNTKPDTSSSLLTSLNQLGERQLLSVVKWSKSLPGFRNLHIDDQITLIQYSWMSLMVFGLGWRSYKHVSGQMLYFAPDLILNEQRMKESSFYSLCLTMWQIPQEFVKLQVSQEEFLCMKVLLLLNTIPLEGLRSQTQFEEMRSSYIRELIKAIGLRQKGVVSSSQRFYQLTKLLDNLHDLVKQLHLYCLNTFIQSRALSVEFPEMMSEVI
Method: Compounds were tested using the PolarScreen™ Progesterone Receptor Competitor Assay Kit (Life Technologies Cat #A15905 or a15906), as per the manufacturer's instructions. Briefly, GST-tagged PR LBD, Fluormone tracer, and compound were mixed and incubated for 2 hours at room temperature in the dark. Following incubation, the plates were spun at 3000×g for 30 seconds, then sealed with an optical adhesive cover, and fluorescence polarization was measured using appropriate excitation and emission filters with an EnVision Plate Reader (Perkin Elmer). Compound concentration vs. mP value were plotted in Prism (GraphPad). A four-parameter non-linear regression curve fit was applied to dose-response data to determine the half-maximal inhibitory concentration (IC50) for each test compound.

| Kd (BRD4-BD1) | Kd (BRD4-BD2) | Kd (progesterone receptor) | IC50 [1] | SMILES |
| --- | --- | --- | --- | --- |
| 50 to 500 nM | 50 to 500 nM |  |  | CCNC(=O)C[C@@H]1N=C(c2ccc(CC3CCN(c4ccc(C(=O)N[C@H]5CC[C@H](Oc6ccc(C#N)c(Cl)c6)CC5)nn4)CC3)cc2)c2c(sc(C)c2C)-n2c(C)nnc21 [I-20] |
| 50 to 500 nM | 50 to 500 nM | 50 to 500 nM |  | CCNC(=O)C[C@@H]1N=C(c2ccc(N3CCC(OC4CCN(c5ccc(C(=O)N[C@H]6CC[C@H](Oc7ccc(C#N)c(Cl)c7)CC6)nn5)CC4)CC3)cc2)c2c(sc(C)c2C)-n2c(C)nnc21 [I-44] |
|  |  | 50 to 500 nM | 50 to 500 nM | Cc1sc2c(c1C)C(c1ccc(Cl)cc1)=N[C@@H](CC(=O)NCCOCCOCCOC1CCN(c3ccc(C(=O)N[C@H]4CC[C@H](Oc5ccc(C#N)c(Cl)c5)CC4)nn3)CC1)c1nnc(C)n1-2 [I-2, N-[4-(3-chloro-4-cyano-phenoxy)cyclohexyl]-6-[4-[2-[2-[2-[[2-[(9S)-7-(4-chlorophenyl)-4,5,13-trimethyl-3-thia-1,8,11,12-tetrazatricyclo[8.3.0.0^2,6]trideca-2(6),4,7,10,12-pentaen-9-yl]acetyl]amino]ethoxy]ethoxy]ethoxy]-1-piperidyl]pyridazine-3-carboxamide] |
| 50 to 500 nM |  |  |  | Cc1sc2c(c1C)C(c1ccc(Cl)cc1)=N[C@@H](CC(=O)NCCOC1CCN(c3ccc(C(=O)N[C@H]4CC[C@H](Oc5ccc(C#N)c(Cl)c5)CC4)nn3)CC1)c1nnc(C)n1-2 [I-1, N-[4-(3-chloro-4-cyano-phenoxy)cyclohexyl]-6-[4-[2-[[2-[(9S)-7-(4-chlorophenyl)-4,5,13-trimethyl-3-thia-1,8,11,12-tetrazatricyclo[8.3.0.0^2,6]trideca-2(6),4,7,10,12-pentaen-9-yl]acetyl]amino]ethoxy]-1-piperidyl]pyridazine-3-carboxamide] |
| 50 to 500 nM | 50 to 500 nM |  |  | CCNC(=O)C[C@@H]1N=C(c2ccc(N3CC4(C3)CN(c3ccc(C(=O)N[C@H]5CC[C@H](Oc6ccc(C#N)c(Cl)c6)CC5)nn3)C4)cc2)c2c(sc(C)c2C)-n2c(C)nnc21 [I-24] |
| 50 to 500 nM | < 50 nM |  |  | CCNC(=O)C[C@@H]1N=C(c2ccc(CCCOC3CCN(c4ccc(C(=O)N[C@H]5CC[C@H](Oc6ccc(C#N)c(Cl)c6)CC5)nn4)CC3)cc2)c2c(sc(C)c2C)-n2c(C)nnc21 [I-17] |
|  |  | 50 to 500 nM |  | CCNC(=O)C[C@@H]1N=C(c2ccc(OCC3CN(c4ccc(C(=O)N[C@H]5CC[C@H](Oc6ccc(C#N)c(Cl)c6)CC5)nn4)C3)cc2)c2c(sc(C)c2C)-n2c(C)nnc21 [I-29] |
